Results as given in patent US10913738B2 (BRISTOL-MYERS SQUIBB COMPANY, priority 2017, dated 2021).
Like-named read-outs stand apart in the source and are kept apart here.

Tests used:
[1] = biological target: T1, His-GST-TVMV-hRIPK1(1-324) (Homo sapiens, UniProt Q13546); assay: RIPK1 HTRF Binding Assay
T1 construct: The coding region of human RIPK1(1-324) flanked by NdeI site at 5′ end; made in house; host or cells: Spodoptera frugiperda (Sf9) insect cells, baculovirus
T1 sequence (Q13546 1-324): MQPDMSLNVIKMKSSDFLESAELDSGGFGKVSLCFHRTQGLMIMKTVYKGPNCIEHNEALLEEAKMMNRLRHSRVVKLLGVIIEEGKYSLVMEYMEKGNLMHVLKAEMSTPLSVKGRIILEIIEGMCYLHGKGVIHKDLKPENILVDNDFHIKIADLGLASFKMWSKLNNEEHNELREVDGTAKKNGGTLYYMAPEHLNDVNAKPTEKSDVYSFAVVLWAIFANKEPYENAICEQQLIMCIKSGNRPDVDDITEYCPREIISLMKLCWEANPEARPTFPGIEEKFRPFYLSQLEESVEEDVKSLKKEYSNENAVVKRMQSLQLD

[2] = tested on: MLKL phosphorylation in HT29-L23 human colorectal adenocarcinoma cells; assay: MLKL Phosphorylation High-Content Assay; assay type: cell-based; conditions: Homo sapiens
Summary of the method: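 Cells incubated six hours at 37° C., then phospho-MLKL (S358) immunostained overnight at 4° C. and imaged by high-content microscopy. Phosphorylation quantified as mean circ-ring average intensity ratio; IC50 and Ymax from 4-parameter logistic fits.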

[3] = x marks IC50 class <20 nM, read-out: RIPK1 HTRF binding <20 nM
[4] = x marks IC50 class <20 nM, read-out: pMLKL cell activity <20 nM
[5] = x marks IC50 class 20-200 nM, read-out: pMLKL cell activity 20-200 nM
[6] = x marks IC50 class >200 nM, read-out: pMLKL cell activity >200 nM
[7] = x marks IC50 class 20-200 nM, read-out: RIPK1 HTRF binding 20-200 nM
[8] = x marks IC50 class >200 nM, read-out: RIPK1 HTRF binding >200 nM

| Structure (SMILES) | IC50 [1, 3] | IC50 [2, 4] | IC50 [2, 5] | further results |
| --- | --- | --- | --- | --- |
| COc1nc(C)c(-c2ccn3nc(N)nc3c2)cc1C(=O)NCc1ccccc1OC1CCCC1 [Example 219, 5-{2-amino-[1,2,4]triazolo[1,5-a]pyridin-7-yl}-N-{[2-(cyclopentyloxy)phenyl]methyl}-2-methoxy-6-methylpyridine-3-carboxamide] | < 0.02 µM | < 0.02 µM |  |  |
| COc1ncc(-c2ccn3nc(N)nc3c2)cc1C(=O)NCc1c(Cl)cccc1Oc1ccccc1 [Example 155, 5-{2-amino-[1,2,4]triazolo[1,5-a]pyridin-7-yl}-N-[(2-chloro-6-phenoxyphenyl)methyl]-2-methoxypyridine-3-carboxamide] | < 0.02 µM | < 0.02 µM |  |  |
| Cc1nc(C)c(-c2ccn3nc(N)nc3c2)cc1C(=O)NCc1c(F)cc(F)cc1OCC1CCCC1 [Example 177, 5-{2-amino-[1,2,4]triazolo[1,5-a]pyridin-7-yl}-N-{[2-(cyclopentylmethoxy)-4,6-difluorophenyl]methyl}-2,6-dimethylpyridine-3-carboxamide] | < 0.02 µM |  | 0.02 to 0.2 µM |  |
| Cc1ncc(-c2ccn3nc(N)nc3c2)cc1C(=O)NCc1ncccc1OC1CCCC1 [Example 241, 5-{2-amino-[1,2,4]triazolo[1,5-a]pyridin-7-yl}-N-{[3-(cyclopentyloxy)pyridin-2-yl]methyl}-2-methylpyridine-3-carboxamide] | < 0.02 µM |  | 0.02 to 0.2 µM |  |
| COc1ncc(-c2ccn3nc(N)nc3c2)cc1C(=O)NCc1ccccc1CN1CCOCC1 [Example 105, 5-{2-amino-[1,2,4]triazolo[1,5-a]pyridin-7-yl}-2-methoxy-N-({2-[(morpholin-4-yl)methyl]phenyl}methyl)pyridine-3-carboxamide] | < 0.02 µM |  |  | IC50 [2, 6]: > 0.2 µM |
| Cc1nc(C)c(-c2ccn3nc(N)nc3c2)cc1C(=O)NCc1cccc(OCC(F)(F)F)c1 [Example 293, 5-(2-amino-[1,2,4]triazolo[1,5-a]pyridin-7-yl)-2,6-dimethyl-N-(3-(2,2,2-trifluoroethoxy)benzyl)nicotinamide] |  |  | 0.02 to 0.2 µM | IC50 [1, 7]: 0.02 to 0.2 µM |
| COc1ncc(-c2ccn3nc(N)nc3c2)cc1C(=O)NC(C)c1cc(OC(F)(F)F)ccc1F (single isomer, unassigned) [Example 89-1, 5-{2-amino-[1,2,4]triazolo[1,5-a]pyridin-7-yl}-N-{1-[2-fluoro-5-(trifluoromethoxy)phenyl]ethyl}-2-methoxypyridine-3-carboxamide] |  |  | 0.02 to 0.2 µM | IC50 [1, 7]: 0.02 to 0.2 µM |
| COc1nc(C)c(-c2ccn3nc(N)nc3c2)cc1C(=O)NCc1cc(F)cc(F)c1C(=O)N1CCC(F)(F)C1 [Example 380, 5-(2-amino-[1,2,4]triazolo[1,5-a]pyridin-7-yl)-N-(2-(3,3-difluoropyrrolidine-1-carbonyl)-3,5-difluorobenzyl)-2-methoxy-6-methylnicotinamide] | < 0.02 µM | < 0.02 µM |  |  |
| COc1ccccc1CNC(=O)c1cc(-c2ccn3nc(N)nc3c2)cnc1OC [Example 154, 5-{2-amino-[1,2,4]triazolo[1,5-a]pyridin-7-yl}-2-methoxy-N-[(2-methoxyphenyl)methyl]pyridine-3-carboxamide] |  |  |  | IC50 [1, 8]: > 0.2 µM; IC50 [2, 6]: > 0.2 µM |
| COc1nc(C)c(-c2ccn3nc(N)nc3c2)cc1C(=O)NCCC(C)c1ccccc1 (stereo not shown) [Example 218, 5-{2-amino-[1,2,4]triazolo[1,5-a]pyridin-7-yl}-2-methoxy-6-methyl-N-(3-phenylbutyl)pyridine-3-carboxamide] | < 0.02 µM | < 0.02 µM |  |  |
| COc1ncc(-c2ccn3nc(N)nc3c2)cc1C(=O)NCc1c(F)cccc1OCC1CC1 [Example 147, 5-{2-amino-[1,2,4]triazolo[1,5-a]pyridin-7-yl}-N-{[2-(cyclopropylmethoxy)-6-fluorophenyl]methyl}-2-methoxypyridine-3-carboxamide] | < 0.02 µM | < 0.02 µM |  |  |
| [2H]C([2H])(NC(=O)c1cc(-c2ccn3nc(N)nc3c2)c(C)nc1OC)c1cc(OC(F)(F)F)ccc1F [Example 222, 5-{2-amino-[1,2,4]triazolo[1,5-a]pyridin-7-yl}-N-{[2-fluoro-5-(trifluoromethoxy)phenyl](deutero)methyl}-2-methoxy-6-methylpyridine-3-carboxamide] | < 0.02 µM | < 0.02 µM |  |  |
| COc1ncc(-c2ccn3nc(N)nc3c2)cc1C(=O)NCc1ccc(F)cc1OCC1CCCC1 [Example 130, 5-{2-amino-[1,2,4]triazolo[1,5-a]pyridin-7-yl}-N-{[2-(cyclopentylmethoxy)-4-fluorophenyl]methyl}-2-methoxypyridine-3-carboxamide] | < 0.02 µM |  | 0.02 to 0.2 µM |  |
| Cc1nc(C)c(-c2ccn3nc(N)nc3c2)cc1C(=O)NCCc1cccc(OC(F)(F)F)c1 [Example 175, 5-{2-amino-[1,2,4]triazolo[1,5-a]pyridin-7-yl}-2,6-dimethyl-N-{2-[3-(trifluoromethoxy)phenyl]ethyl}pyridine-3-carboxamide] | < 0.02 µM | < 0.02 µM |  |  |
| CCOc1ncc(-c2ccn3nc(N)nc3c2)cc1C(=O)NCc1ccccc1SC(C)C [Example 266, 5-{2-amino-[1,2,4]triazolo[1,5-a]pyridin-7-yl}-2-ethoxy-N-{[2-(propan-2-ylsulfanyl)phenyl]methyl}pyridine-3-carboxamide] | < 0.02 µM |  | 0.02 to 0.2 µM |  |
| Cc1ncc(-c2ccn3nc(N)nc3c2)cc1C(=O)NCc1cc(F)cc(F)c1OCC(C)C [Example 301, 5-(2-amino-[1,2,4]triazolo[1,5-a]pyridin-7-yl)-N-(3,5-difluoro-2-isobutoxybenzyl)-2-methylnicotinamide] | < 0.02 µM |  | 0.02 to 0.2 µM |  |
| Cc1cnc(-c2ccn3nc(N)nc3c2)nc1C(=O)NCCC(C)c1ccccc1 (stereo not shown) [Example 411, 2-(2-amino-[1,2,4]triazolo[1,5-a]pyridin-7-yl)-5-methyl-N-(3-phenylbutyl)pyrimidine-4-carboxamide] |  |  |  | IC50 [1, 7]: 0.02 to 0.2 µM; IC50 [2, 6]: > 0.2 µM |
| [2H]C([2H])(Oc1c(F)cc(F)cc1CNC(=O)c1cc(-c2ccn3nc(N)nc3c2)c(C)nc1C)C1CC1 [Example 287, 5-(2-amino-[1,2,4]triazolo[1,5-a]pyridin-7-yl)-N-(2-(cyclopropylmethoxy-d2)-3,5-difluorobenzyl)-2,6-dimethylnicotinamide] | < 0.02 µM | < 0.02 µM |  |  |
| Cc1ncc(-c2ccn3nc(N)nc3c2)cc1C(=O)NCc1cc(F)cc(F)c1OC1CCOC(C)C1 (stereo not shown) [Example 316, 5-(2-amino-[1,2,4]triazolo[1,5-a]pyridin-7-yl)-N-(3,5-difluoro-2-((2-methyltetrahydro-2H-pyran-4-yl)oxy)benzyl)-2-methylnicotinamide] |  |  |  | IC50 [1, 7]: 0.02 to 0.2 µM; IC50 [2, 6]: > 0.2 µM |
| Cc1ncc(-c2ccn3nc(N)nc3c2)cc1C(=O)NCc1ccccc1OCC1CCCC1 [Example 39, 5-{2-Amino-[1,2,4]triazolo[1,5-a]pyridin-7-yl}-N-{[2-(cyclopentylmethoxy)phenyl]methyl}-2-methylpyridine-3-carboxamide] | < 0.02 µM |  | 0.02 to 0.2 µM |  |
| [2H]C([2H])([2H])Oc1nc(C)c(-c2ccn3nc(N)nc3c2)cc1C(=O)NC(C)c1ccccc1OC(F)(F)F (single isomer, unassigned) [Example 98-1, 5-{2-amino-[1,2,4]triazolo[1,5-a]pyridin-7-yl}-2-(deutero)methoxy-6-methyl-N-{1-[2-(trifluoromethoxy)phenyl]ethyl}pyridine-3-carboxamide] |  |  |  | IC50 [1, 8]: > 0.2 µM; IC50 [2, 6]: > 0.2 µM |
| Nc1nc2cc(-c3cncc(C(=O)NCc4ccccc4OC4CCCC4)c3)ccn2n1 [Example 43, 5-{2-Amino-[1,2,4]triazolo[1,5-a]pyridin-7-yl}-N-{[2-(cyclopentyloxy)phenyl]methyl}pyridine-3-carboxamide] | < 0.02 µM |  | 0.02 to 0.2 µM |  |
| Cc1cnc(C(=O)NCCC(C)c2ccccc2)cc1-c1ccn2nc(N)nc2c1 (stereo not shown) [Example 400, 4-(2-amino-[1,2,4]triazolo[1,5-a]pyridin-7-yl)-5-methyl-N-(3-phenylbutyl)picolinamide] | < 0.02 µM |  | 0.02 to 0.2 µM |  |
| [2H]C([2H])([2H])Nc1nc2cc(-c3cnc(C)c(C(=O)N[C@H](C)c4cc(OC(F)(F)F)ccc4F)c3)ccn2n1 [Example 375, (R)—N-(1-(2-fluoro-5-(trifluoromethoxy)phenyl)ethyl)-2-methyl-5-(2-((methyl-d3)amino)-[1,2,4]triazolo[1,5-a]pyridin-7-yl)nicotinamide] | < 0.02 µM |  | 0.02 to 0.2 µM |  |
| COc1ncc(-c2ccn3nc(N)nc3c2)cc1C(=O)Nc1cnn(C(C)c2ccc(F)cc2)c1 (single isomer, unassigned) [Example 76-2] | < 0.02 µM |  | 0.02 to 0.2 µM |  |
| COc1ncc(-c2ccn3nc(N)nc3c2)cc1C(=O)N1CCC[C@H](Cc2ccc(F)cc2)C1 [Example 134, 7-{5-[(3R)-3-[(4-fluorophenyl)methyl]piperidine-1-carbonyl]-6-methoxypyridin-3-yl}-[1,2,4]triazolo[1,5-a]pyridin-2-amine] |  | < 0.02 µM |  | IC50 [1, 7]: 0.02 to 0.2 µM |
